Measured values: US8629148B2, “Substituted oxindole-derivatives and the use thereof for the treatment of vasopressin-dependent illnesses” (AbbVie Deutschland GmbH & Co. KG, priority 2007, dated 2014)

Columns and labels:
[1] = target: T1, human vasopressin V1b receptor (Homo sapiens, UniProt P47901); assay: Vasopressin V1b receptor binding assay (3H-AVP displacement, CHO-K1 membranes)
T1 construct: expressed in transfected cells; host or cells: CHO-K1 (cell line hV1b_3H2_CHO), membranes
T1 sequence (P47901 1-424): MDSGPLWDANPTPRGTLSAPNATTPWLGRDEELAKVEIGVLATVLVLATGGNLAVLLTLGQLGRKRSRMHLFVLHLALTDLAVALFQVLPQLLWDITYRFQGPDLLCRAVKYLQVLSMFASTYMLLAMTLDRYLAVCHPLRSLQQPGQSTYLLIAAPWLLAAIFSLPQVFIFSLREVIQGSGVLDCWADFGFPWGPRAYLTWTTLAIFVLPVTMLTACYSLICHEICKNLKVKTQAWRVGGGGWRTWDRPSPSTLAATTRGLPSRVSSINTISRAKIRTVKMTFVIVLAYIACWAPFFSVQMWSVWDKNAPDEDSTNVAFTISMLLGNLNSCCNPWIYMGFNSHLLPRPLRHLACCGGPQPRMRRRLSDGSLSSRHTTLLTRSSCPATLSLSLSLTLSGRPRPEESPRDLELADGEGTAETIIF
Protocol: 1. Vasopressin V1b Receptor Binding Assay:
The substance concentration was further diluted 1:5 in the assay mixture (2% DMSO in the mixture).
All determinations were carried out as triplicate determinations.

[2] = target: T2, recombinant human oxytocin receptors (Homo sapiens, UniProt P30559); assay: Oxytocin receptor binding assay (3H-oxytocin, HEK-293 cells); conditions: selectivity quotient, human OT vs human V1b
T2 construct: expressed in transfected cells; host or cells: HEK-293, transient expression; lysed and homogenized cells
T2 sequence (P30559 1-389): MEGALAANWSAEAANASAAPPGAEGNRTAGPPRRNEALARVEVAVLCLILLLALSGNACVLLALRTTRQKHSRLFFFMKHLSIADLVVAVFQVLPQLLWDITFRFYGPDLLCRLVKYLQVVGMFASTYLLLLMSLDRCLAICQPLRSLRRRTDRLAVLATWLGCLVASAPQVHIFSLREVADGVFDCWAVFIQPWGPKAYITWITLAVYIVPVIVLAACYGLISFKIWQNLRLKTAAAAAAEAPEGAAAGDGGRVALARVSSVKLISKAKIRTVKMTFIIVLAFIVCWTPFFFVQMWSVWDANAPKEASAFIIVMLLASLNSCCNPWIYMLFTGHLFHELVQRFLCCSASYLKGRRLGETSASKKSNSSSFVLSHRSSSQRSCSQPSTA
Protocol: The residue was taken up in ice-cold lysis buffer (50 mM Tris-HCl, 10% glycerol, pH 7.4 and Roche complete protease inhibitor) and subjected to an osmotic shock at 4° C. for 20 minutes. The lyzed cells were then centrifuged at 750×g at 4° C. for 20 minutes, the residue was taken up in incubation buffer, and aliquots of 10^7 cells/ml were prepared. The aliquots were frozen at −80° C. until used.
On the day of the experiment, the cells were thawed, diluted with incubation buffer and homogenized using a Multipette Combitip (Eppendorf, Hamburg). […] Triplicate determinations were set up. Bound and free radioligand were separated by filtration under vacuum with Whatman GF/B glass fiber filters with the aid of a Skatron cell harvester 7000. The bound radioactivity was determined by liquid scintillation measurement in a Tricarb Beta counter, model 2000 or 2200CA (Packard).

[3] = target: human vasopressin V1a receptor (Homo sapiens, UniProt P37288); assay: Vasopressin V1a receptor binding assay (125I-AVP displacement, CHO-K1 membranes); conditions: selectivity quotient, human V1a vs human V1b
human vasopressin V1a receptor, sequence (P37288 whole entry): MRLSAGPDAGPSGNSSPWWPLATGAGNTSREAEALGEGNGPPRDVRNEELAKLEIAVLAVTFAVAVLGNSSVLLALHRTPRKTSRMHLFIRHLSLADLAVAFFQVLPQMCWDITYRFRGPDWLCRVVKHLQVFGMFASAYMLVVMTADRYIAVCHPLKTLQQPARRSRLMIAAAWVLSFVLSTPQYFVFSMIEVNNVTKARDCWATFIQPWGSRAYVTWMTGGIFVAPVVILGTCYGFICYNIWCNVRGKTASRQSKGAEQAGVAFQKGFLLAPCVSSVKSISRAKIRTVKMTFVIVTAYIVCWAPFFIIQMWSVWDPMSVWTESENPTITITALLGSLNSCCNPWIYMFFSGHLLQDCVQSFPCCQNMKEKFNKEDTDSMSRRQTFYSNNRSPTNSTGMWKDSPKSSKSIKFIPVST

SMILES: CCOc1ncccc1C1(NCc2ccc(N3CCNCC3)cc2)C(=O)N(S(=O)(=O)c2ccc(OC)cc2)c2ccc(C#N)cc21 (stereo not drawn) [Example 30, 3-(2-Ethoxypyridin-3-yl)-1-(4-methoxyphenylsulfonyl)-2-oxo-3-(4-piperazin-1-yl-benzylamino)-2,3-dihydro-1H-indole-5-carbonitrile]
- Ki [1]: 1 to 10 nM
- Ki(h-OT)/Ki(h-V1b)* [2]: +++ (>75)
- Ki(h-V1a)/Ki(h-V1b)* [3]: +++ (>75)

SMILES: CCOc1ncccc1C1(NCc2ccc(N3CCN(CC)CC3)cc2)C(=O)N(S(=O)(=O)c2ccc(OC)cc2)c2ccc(C#N)cc21 (stereo not drawn) [Example 31, 3-(2-Ethoxypyridin-3-yl)-3-[4-(4-ethylpiperazin-1-yl)benzylamino]-1-(4-methoxy-phenylsulfonyl)-2-oxo-2,3-dihydro-1H-indole-5-carbonitrile]
- Ki [1]: < 1 nM
- Ki(h-OT)/Ki(h-V1b)* [2]: +++ (>75)
- Ki(h-V1a)/Ki(h-V1b)* [3]: +++ (>75)

SMILES: CCOc1ncccc1C1(NCc2ccc(N3CCN(C)CC3)cc2)C(=O)N(S(=O)(=O)c2ccc(OC)cc2)c2cc(F)c(C#N)cc21 (stereo not drawn) [Example 33, 3-(2-Ethoxypyridin-3-yl)-6-fluoro-1-(4-methoxyphenylsulfonyl)-3-[4-(4-methylpiperazin-1-yl)benzylamino]-2-oxo-2,3-dihydro-1H-indole-5-carbonitrile]
- Ki [1]: < 1 nM
- Ki(h-OT)/Ki(h-V1b)* [2]: +++ (>75)
- Ki(h-V1a)/Ki(h-V1b)* [3]: +++ (>75)

SMILES: CCOc1ncccc1C1(NCc2ccc(N3CCNCC3)cc2)C(=O)N(S(=O)(=O)c2ccc(OC)cc2)c2cc(F)c(C#N)cc21 (stereo not drawn) [Example 34, 3-(2-Ethoxypyridin-3-yl)-6-fluoro-1-(4-methoxyphenylsulfonyl)-2-oxo-3-(4-piperazin-1-yl-benzylamino)-2,3-dihydro-1H-indole-5-carbonitrile]
- Ki [1]: 1 to 10 nM
- Ki(h-OT)/Ki(h-V1b)* [2]: +++ (>75)
- Ki(h-V1a)/Ki(h-V1b)* [3]: + (10-<25)

SMILES: CCOc1ncccc1C1(NCc2ccc(N3CCN(CC)CC3)cc2)C(=O)N(S(=O)(=O)c2ccc(OC)cc2)c2cc(F)c(C#N)cc21 (stereo not drawn) [Example 35, 3-(2-Ethoxypyridin-3-yl)-3-[4-(4-ethylpiperazin-1-yl)benzylamino]-6-fluoro-1-(4-methoxyphenylsulfonyl)-2-oxo-2,3-dihydro-1H-indole-5-carbonitrile]
- Ki [1]: 1 to 10 nM
- Ki(h-OT)/Ki(h-V1b)* [2]: +++ (>75)
- Ki(h-V1a)/Ki(h-V1b)* [3]: + (10-<25)

SMILES: CCOc1ccccc1C1(NCc2ccc(N3CCN(C)CC3)cc2)C(=O)N(S(=O)(=O)c2ccc(OC)cc2)c2ccc(C#N)cc21 (stereo not drawn) [Example 37, 3-(2-Ethoxyphenyl)-1-(4-methoxyphenylsulfonyl)-3-[4-(4-methylpiperazin-1-yl)-benzylamino]-2-oxo-2,3-dihydro-1H-indole-5-carbonitrile]
- Ki [1]: 1 to 10 nM
- Ki(h-OT)/Ki(h-V1b)* [2]: +++ (>75)
- Ki(h-V1a)/Ki(h-V1b)* [3]: ++ (25-75)

SMILES: CCOc1ncccc1C1(NCc2cccc(N3CCN(C)CC3)c2)C(=O)N(S(=O)(=O)c2ccc(OC)cc2OC)c2ccc(I)cc21 (stereo not drawn) [Example 38, 1-(2,4-Dimethoxyphenylsulfonyl)-3-(2-ethoxypyridin-3-yl)-5-iodo-3-[3-(4-methylpiperazin-1-yl)benzylamino]-1,3-dihydroindol-2-one]
- Ki [1]: 1 to 10 nM
- Ki(h-OT)/Ki(h-V1b)* [2]: + (10-<25)
- Ki(h-V1a)/Ki(h-V1b)* [3]: + (10-<25)

SMILES: CCOc1ncccc1C1(NCc2cccc(N3CCN(C)CC3)c2)C(=O)N(S(=O)(=O)c2ccc(OC)cc2)c2ccc(I)cc21 (stereo not drawn) [Example 40, 3-(2-Ethoxypyridin-3-yl)-5-iodo-1-(4-methoxyphenylsulfonyl)-3-[3-(4-methylpiperazin-1-yl)-benzylamino]-1,3-dihydroindol-2-one]
- Ki [1]: 1 to 10 nM
- Ki(h-OT)/Ki(h-V1b)* [2]: ++ (25-75)
- Ki(h-V1a)/Ki(h-V1b)* [3]: ++ (25-75)

SMILES: CCOc1ncccc1C1(NCc2cccc(N3CCN(C)CC3)c2)C(=O)N(S(=O)(=O)c2ccccc2OC)c2ccc(I)cc21 (stereo not drawn) [Example 41, 3-(2-Ethoxypyridin-3-yl)-5-iodo-1-(2-methoxyphenylsulfonyl)-3-[3-(4-methylpiperazin-1-yl)-benzylamino]-1,3-dihydroindol-2-one]
- Ki [1]: 1 to 10 nM
- Ki(h-OT)/Ki(h-V1b)* [2]: ++ (25-75)
- Ki(h-V1a)/Ki(h-V1b)* [3]: ++ (25-75)

SMILES: CCOc1ncccc1C1(NCc2cccc(N3CCN(C)CC3)c2)C(=O)N(S(=O)(=O)c2ccc(OC)cc2)c2ccc(C#N)cc21 (stereo not drawn) [Example 43, 3-(2-Ethoxypyridin-3-yl)-1-(4-methoxyphenylsulfonyl)-3-[3-(4-methylpiperazin-1-yl)-benzylamino]-2-oxo-2,3-dihydro-1H-indole-5-carbonitrile]
- Ki [1]: 1 to 10 nM
- Ki(h-OT)/Ki(h-V1b)* [2]: + (10-<25)
- Ki(h-V1a)/Ki(h-V1b)* [3]: +++ (>75)

SMILES: CCOc1ncccc1C1(Nc2ccc(N3CCN(C)CC3)cc2)C(=O)N(S(=O)(=O)c2ccc(OC)cc2)c2ccc(I)cc21 (stereo not drawn) [Example 50, 3-(2-Ethoxypyridin-3-yl)-5-iodo-1-(4-methoxyphenylsulfonyl)-3-[4-(4-methylpiperazin-1-yl)-phenylamino]-1,3-dihydroindol-2-one]
- Ki [1]: 1 to 10 nM
- Ki(h-OT)/Ki(h-V1b)* [2]: +++ (>75)
- Ki(h-V1a)/Ki(h-V1b)* [3]: + (10-<25)

SMILES: CCOc1ncccc1C1(Nc2ccc(N3CCN(CC)CC3)cc2)C(=O)N(S(=O)(=O)c2ccc(OC)cc2)c2ccc(C#N)cc21 (stereo not drawn) [Example 57, 3-(2-Ethoxypyridin-3-yl)-3-[4-(4-ethylpiperazin-1-yl)phenylamino]-1-(4-methoxyphenylsulfonyl)-2-oxo-2,3-dihydro-1H-indole-5-carbonitrile]
- Ki [1]: 10 to 100 nM
- Ki(h-OT)/Ki(h-V1b)* [2]: +++ (>75)
- Ki(h-V1a)/Ki(h-V1b)* [3]: ++ (25-75)

SMILES: CCOc1ncccc1C1(Nc2ccc(N3CCN(C)CC3)cc2)C(=O)N(S(=O)(=O)c2ccc(OC)cc2)c2cc(F)c(C#N)cc21 (stereo not drawn) [Example 59, 3-(2-Ethoxypyridin-3-yl)-6-fluoro-1-(4-methoxyphenylsulfonyl)-3-[4-(4-methylpiperazin-1-yl)phenylamino]-2-oxo-2,3-dihydro-1H-indole-5-carbonitrile]
- Ki [1]: 1 to 10 nM
- Ki(h-OT)/Ki(h-V1b)* [2]: +++ (>75)
- Ki(h-V1a)/Ki(h-V1b)* [3]: ++ (25-75)

SMILES: CCOc1ncccc1C1(Nc2cccc(N3CCN(C)CC3)c2)C(=O)N(S(=O)(=O)c2ccc(OC)cc2OC)c2ccc(I)cc21 (stereo not drawn) [Example 60, 1-(2,4-Dimethoxyphenylsulfonyl)-3-(2-ethoxypyridin-3-yl)-5-iodo-3-[3-(4-methylpiperazin-1-yl)phenylamino]-1,3-dihydroindol-2-one]
- Ki [1]: 1 to 10 nM
- Ki(h-OT)/Ki(h-V1b)* [2]: ++ (25-75)
- Ki(h-V1a)/Ki(h-V1b)* [3]: ++ (25-75)

SMILES: CCOc1ncccc1C1(Nc2ccc(N3CCN(C)CC3)nc2)C(=O)N(S(=O)(=O)c2ccc(OC)cc2)c2ccc(I)cc21 (stereo not drawn) [Example 68, 3-(2-Ethoxypyridin-3-yl)-5-iodo-1-(4-methoxyphenylsulfonyl)-3-[6-(4-methylpiperazin-1-yl)-pyridin-3-ylamino]-1,3-dihydroindol-2-one]
- Ki [1]: 1 to 10 nM
- Ki(h-OT)/Ki(h-V1b)* [2]: ++ (25-75)
- Ki(h-V1a)/Ki(h-V1b)* [3]: + (10-<25)

SMILES: CCOc1ncccc1C1(Nc2ccc(C(=O)N3CCN(C)CC3)cc2)C(=O)N(S(=O)(=O)c2ccc(OC)cc2)c2ccc(I)cc21 (stereo not drawn) [Example 70, 3-(2-Ethoxypyridin-3-yl)-5-iodo-1-(4-methoxyphenylsulfonyl)-3-[4-(4-methylpiperazin-1-carbonyl)phenylamino]-1,3-dihydroindol-2-one]
- Ki [1]: 1 to 10 nM
- Ki(h-OT)/Ki(h-V1b)* [2]: + (10-<25)
- Ki(h-V1a)/Ki(h-V1b)* [3]: ++ (25-75)

SMILES: CCOc1ncccc1C1(Nc2ccc(C(=O)N3CCN(C)CC3)cc2)C(=O)N(S(=O)(=O)c2ccc(OC)cc2OC)c2ccc(C#N)cc21 (stereo not drawn) [Example 73, 1-(2,4-Dimethoxyphenylsulfonyl)-3-(2-ethoxypyridin-3-yl)-3-[4-(4-methylpiperazin-1-carbonyl)phenylamino]-2-oxo-2,3-dihydro-1H-indole-5-carbonitrile]
- Ki [1]: 10 to 100 nM
- Ki(h-OT)/Ki(h-V1b)* [2]: ++ (25-75)
- Ki(h-V1a)/Ki(h-V1b)* [3]: +++ (>75)
